According to patent US20210317109A1, “TRICYCLIC SUBSTITUTED PIPERIDINE DIONE COMPOUND” (MEDSHINE DISCOVERY INC., priority 2018, published 2021):
pIC50: −log10 of the molar value. Structures can show the parent of a compound that is named as a salt.

Assays:
[1] = Pharmacokinetic properties of test compound in mice (oral); type: in vivo, C57BL male mice; conditions: for oral plasma systemic exposures (AUC0-inf), in words / Area under the drug-time curve (0-inf) / Peak concentration / Time to peak: mice; for Area under the drug-time curve (0-inf) / Peak concentration / Time to peak: oral 10 mg/kg, plasma; for pharmacokinetic properties, in words: rodent mice
From the text: In this study, C57BL male mice were selected as the test animals. A LC-MS/MS method was used to quantitatively determine the drug concentration in the plasma after oral administration of the test compound and the reference compound, to evaluate the pharmacokinetic profile of the test compound in mice.
C57Balb/c (C57) mice (male, 20-30 g, 7-10 weeks old, Beijing Vital River or Shanghai SLAC).
A clear solution or suspension of the test compound was administrated to C57 mice (fasted overnight) by oral gavage. Blood was collected from jugular vein at pre-dose and 0.5, 1, 2, 4, 6, 8, 24 hours post-dose, the collected blood samples were placed in an anticoagulant tube (Jiangsu Kangjian Medical Co., Ltd.) supplemented with EDTA-K2, and the mixture was vortexed and centrifuged at 13000 rpm for 10 minutes. The LC-MS/MS method was used to determine the plasma concentration of test compounds, and the relevant pharmacokinetic parameters were calculated using non-compartmental model linear logarithmic trapezoidal method by WinNonlinTM Version 6.3 (Pharsight, Mountain View, Calif.).

OCI-LY10 cell line = assay: Anti-proliferative effect in lymphoma cell line OCI-LY10 (CellTiter-Glo); type: cell-based; conditions: Homo sapiens, OCI-Ly10, 120 h; incubate with the compound for 5 days
Description: (§1) Experiment object: In this experiment, the inhibitory effects of the test compounds on cell proliferation in the diffuse large B-cell lymphoma cell lines OCI-LY10 and DOHH2, and the mantle cell lymphoma cell line Mino were tested.
(§2) The tumor cell lines were cultured in an incubator at 37° C. and 5% CO2 under the above-mentioned culture conditions. The cells were passaged regularly, and cells in the logarithmic growth phase were taken for planting.
(§3) (1). The cells were stained with trypan blue and live cells were counted.
(§4) (2). The cell concentration was adjusted to an appropriate concentration.
(§5) (3). 90 μL of cell suspension was added to each well of the culture plate as shown in the table above, and cell-free culture solution was added to the blank control well.
(4). The culture plates were incubated overnight at 37° C., 5% CO2, and 100% relative humidity in an incubator. […]
(§6) The following steps followed the instructions of Promega CellTiter-Glo Luminescence Cell Viability Detection Kit (Promega-G7573). […]
(§7) (8). The culture plates were left at room temperature for 10 minutes to stabilize the luminescence signal.
(§8) (9). The luminous signal was detected on the 2104 EnVision plate reader. […]

DOHH2 cell line = assay: Anti-proliferative effect in lymphoma cell line DOHH2 (CellTiter-Glo); type: cell-based; conditions: Homo sapiens, DOHH-2, 96 h; incubate with the compound for 4 days
Description: as §1, §2, §3, §4, §5
(§9) (4). The culture plates were incubated overnight at 37° C., 5% CO2, and 100% relative humidity in an incubator.
(§10) The mother liquor storage plate with a compound concentration of 400 times the working concentration of the compound was prepared: The compound was gradually diluted with DMSO from the highest concentration to the lowest concentration. The compound was freshly formulated when use every time.
(§11) (1). Formulation of a working solution with a compound concentration of […] the working concentration of the compound: 76 μL of cell culture solution was added to a 96-well plate with a V-shaped bottom, and 4 μL of the compound was pipetted from the mother liquor storage plate with a compound concentration of […] the working concentration of the compound to the cell culture solution of the 96-well plate. 4 μL of DMSO was added to the vehicle control and blank control. After adding the compound or DMSO, a multi-channel pipette was used for pipetting and mixing well. […]
as §6, §7, §8

[2] = test system: human lymphoma OCI-LY10 cells subcutaneous xenograft tumor
Description: Cells culture: Human lymphoma OCI-LY10 cells (National Cancer Institute) were cultured in a monolayer in vitro. The culture conditions were RPMI-1640 medium with 10% fetal bovine serum, 100 U/mL penicillin and […] streptomycin, 37° C., 5% CO2 incubator culture. Conventional digestion treatment with pancreatin-EDTA for passage was carried out twice a week. When the cell saturation was 80% to 90%, and the number reached the requirement, the cells were collected, counted and inoculated.
Animal: CB-17 SCID mouse, female, 6-8 weeks old, weighing 18-22 grams. Protocols:
0.2 mL (10×10^6 cells) of OCI-LY10 cells (with matrigel in a volume ratio of 1:1) were subcutaneously inoculated on the right back of each mouse. The grouping and administration were started when the average tumor volume reached about 139 mm^3. One dosing cycle was seven days, and the compound was administered once a day with an interval of 24 hours. The test compound was administered orally for a total of four cycles. The dose of the test compound WX002 was 60 mg/kg, the tumor volume was measured twice a week with a two-dimensional caliper, and the volume was measured in cubic millimeters, calculated by the following formula: V =0.5a×b^2, in which a and b were the long diameter and short diameter of the tumor, respectively. The anti-tumor efficacy was determined by dividing average increase of tumor volume of animals treated with the compound by that of untreated animals.

Mino cell line = assay: Anti-proliferative effect in mantle cell lymphoma cell line Mino (CellTiter-Glo); type: cell-based; conditions: Homo sapiens, 96 h, incubate with the compound for 4 days
Description: as §1, §2, §3, §4, §5, §9, §10, §11, §6, §7, §8

[3] = 60 mg/kg oral once a day, Day 27

Row | oral plasma systemic exposures (AUC0-inf), in words [1] | Area under the drug-time curve (0-inf) [1] | Peak concentration [1] | Time to peak [1] | pharmacokinetic properties, in words [1] | pIC50 (DOHH2 cell line) | pIC50 (Mino cell line) | Compound | pIC50 (OCI-LY10 cell line) | Tumor volume (Day 1) ([2]; 60 mg/kg oral once a day, Day 1 (start of administration)) | TGI (Day 27) [2, 3] | Tumor volume (Day 27) [2, 3] | effect on the human lymphoma OCI-LY10 in vivo pharmacodynamic model, in words ([2]; mouse, in vivo)
1 | higher oral plasma systemic exposures | 10.27 µM·h | 4.88 µM | 1.00 h | better pharmacokinetic properties | – | – | CCOC(=O)Cc1coc2ccc3cc(OCCN(C)C)ccc3c12 [Hydrochloride of WX008] | – | – | – | – | –
2 | higher oral plasma systemic exposures | 18.38 µM·h | 8.56 µM | 0.25 h | better pharmacokinetic properties | – | – | O=C1CCC(c2coc3ccc4cc(OCCN5CCOCC5)ccc4c23)C(=O)N1 (centres unmarked) [Hydrochloride of WX020] | – | – | – | – | –
3 | higher oral plasma systemic exposures | 5.50 µM·h | 6.54 µM | 0.25 h | better pharmacokinetic properties | 6.84 | 8.15 | O=C1CCC(c2coc3ccc4occc4c23)C(=O)N1 (centres unmarked) [WX004] | 7.77 | – | – | – | –
4 | – | – | – | – | – | 6.78 | 8.00 | Cc1cc2c(ccc3occ(C4CCC(=O)NC4=O)c32)o1 (centres unmarked) [WX005] | – | – | – | – | –
5 | higher oral plasma systemic exposures | 7.79 µM·h | 12.95 µM | 0.08 h | better pharmacokinetic properties | – | – | O=C1CCC(c2coc3ccc4[nH]ccc4c23)C(=O)N1 (centres unmarked) [WX007] | – | – | – | – | –

Row | Compound | oral plasma systemic exposures (AUC0-inf), in words [1] | Area under the drug-time curve (0-inf) [1] | Peak concentration [1] | Time to peak [1] | pharmacokinetic properties, in words [1] | pIC50 (DOHH2 cell line) | pIC50 (Mino cell line) | pIC50 (OCI-LY10 cell line) | Tumor volume (Day 1) ([2]; 60 mg/kg oral once a day, Day 1 (start of administration)) | TGI (Day 27) [2, 3] | Tumor volume (Day 27) [2, 3] | effect on the human lymphoma OCI-LY10 in vivo pharmacodynamic model, in words ([2]; mouse, in vivo)
6 | O=C1CCC(c2coc3ccc4ccccc4c23)C(=O)N1 (centres unmarked) [WX002] | – | 2.49 µM·h | 2.83 µM | 0.50 h | – | 7.01 | 8.10 | 7.59 | 139 ± 10 mm^3 | 111% | 35 ± 10 mm^3 | significant tumor-shrinking effect
